Data from ChEMBL document CHEMBL2151036, “Chemocentric informatics approach to drug discovery: identification and experimental validation of selective estrogen receptor modulators as ligands of 5-hydroxytryptamine-6 receptors and as potential cognition enhancers” (J Med Chem, 2012).

Molecular target: 5-hydroxytryptamine receptor 6 (Homo sapiens, UniProt P50406)
Experiment: Displacement of [3H]LSD from human 5HT6 receptor expressed in HEK293 cells after 1.5 hrs by liquid scintillation counting; call rule not given here

Chain of 5-hydroxytryptamine receptor 6 (P50406 whole entry): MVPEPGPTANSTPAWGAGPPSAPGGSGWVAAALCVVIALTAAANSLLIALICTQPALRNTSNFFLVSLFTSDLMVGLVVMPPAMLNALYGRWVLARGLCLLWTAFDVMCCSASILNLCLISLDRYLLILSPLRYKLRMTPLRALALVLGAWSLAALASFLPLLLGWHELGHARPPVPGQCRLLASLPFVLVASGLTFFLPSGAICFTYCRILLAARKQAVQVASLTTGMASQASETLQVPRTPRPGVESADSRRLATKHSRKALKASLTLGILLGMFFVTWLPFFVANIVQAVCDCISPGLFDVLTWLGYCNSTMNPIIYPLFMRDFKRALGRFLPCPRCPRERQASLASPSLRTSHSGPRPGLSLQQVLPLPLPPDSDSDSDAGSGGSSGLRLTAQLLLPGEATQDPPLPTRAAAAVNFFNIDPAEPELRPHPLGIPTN

| SMILES | Ki | Ki (hek293) |
| --- | --- | --- |
| O=C1NCN(c2ccccc2)C12CCN(CCCC(c1ccc(F)cc1)c1ccc(F)cc1)CC2 | 1190 nM | – |
| COc1ccccc1N1CCN(CCCCNC(=O)c2ccc3ccccc3c2)CC1 [BP-897] | – | Not Active |
| CCN(CC)CCOc1ccc(C(=C(Cl)c2ccccc2)c2ccccc2)cc1 [CLOMIPHENE] | 1960 nM | – |
| CN(C)CCCN1c2ccccc2CCc2ccc(Cl)cc21 [CLOMIPRAMINE] | 112 nM | – |
| CC(NCCC(c1ccccc1)c1ccccc1)c1ccccc1 (stereo unspecified) [FENDILINE] | – | Not Active |
| O=c1cc(N2CCOCC2)oc2c(-c3ccccc3)cccc12 [LY-294002] | – | Not Active |
| CNCCC=C1c2ccccc2CCc2ccccc21 [NORTRIPTYLINE] | 214 nM | – |
| O=C(c1ccc(OCCN2CCCCC2)cc1)c1c(-c2ccc(O)cc2)sc2cc(O)ccc12 [RALOXIFENE] | 750 nM | – |
| CC/C(=C(\c1ccccc1)c1ccc(OCCN(C)C)cc1)c1ccccc1 [TAMOXIFEN] | 1040 nM | – |
| CN(C)CCOc1ccc(/C(=C(/CCCl)c2ccccc2)c2ccccc2)cc1 [TOREMIFENE] | 4120 nM | – |
| OCCN1CCN(CC/C=C2/c3ccccc3Sc3ccc(Cl)cc32)CC1 [ZUCLOPENTHIXOL] | 169 nM | – |
